Test results as given in publication PMC4303209, “A novel phosphatidylinositol 3-kinase (PI3K) inhibitor directs a potent FOXO-dependent, p53-independent cell cycle arrest phenotype characterized by the differential induction of a subset of FOXO-regulated genes” (Breast Cancer Research : BCR, 2014).

Test system: MCF-7 breast cancer cells
Assay: Microarray gene expression analysis (Agilent whole human genome 4 x 44K; compound vs DMSO, LIMMA log2 fold change)
Format: cell-based

## Cn1ncc2c(N3CCOCC3)nc(-c3cccc(O)c3)nc21 [ETP-45658]
Gene EYA1 (2138), apoptosis genes
  EYA1 log2FC: 0.012
Gene EYA1 (Gene 2138), cell cycle genes
  log2FC EYA1: 0.012
Gene FABP1 (2168), apoptosis genes
  FABP1 log2FC: 0.009
Gene FAIM2 (23017), apoptosis genes
  FAIM2 log2FC: -0.062
Gene FAM3B (54097), apoptosis genes
  FAM3B log2FC: -0.028
Gene FAM32A (26017), apoptosis genes
  FAM32A log2FC: -0.032
Gene FAM32A (Gene 26017), cell cycle genes
  log2FC FAM32A: -0.032
Gene FAM58A (Gene 92002), cell cycle genes
  log2FC: 0.217
Gene FAS (355), apoptosis genes
  FAS log2FC: -0.032
Gene FBXL15 (Gene 79176), cell cycle genes
  log2FC: 0.209
Gene FGFR1OP (Gene 11116), cell cycle genes
  log2FC FGFR1OP: -0.035
Gene FIS1 (51024), apoptosis genes
  FIS1 log2FC: -0.018
Gene FKSG2 (59347), apoptosis genes
  FKSG2 log2FC: 0.133
Gene FMN2 (Gene 56776), cell cycle genes
  log2FC: 0.105
Gene FOXB1 (27023), apoptosis genes
  FOXB1 log2FC: -0.340
Gene FSD1 (Gene 79187), cell cycle genes
  log2FC: -0.401
Gene GADD45G (10912), apoptosis genes
  GADD45G log2FC: -0.067
Gene GAPDH (2597), apoptosis genes
  GAPDH log2FC: -0.037
Gene GAS2L1 (Gene 10634), cell cycle genes
  log2FC: -0.313
Gene GAS2L2 (Gene 246176), cell cycle genes
  log2FC GAS2L2: -0.00355
Gene GAS6 (2621), apoptosis genes
  GAS6 log2FC: -0.052
Gene GATA6 (2627), apoptosis genes
  GATA6 log2FC: -0.019
Gene GATA6 (Gene 2627), cell cycle genes
  log2FC GATA6: -0.019
Gene GCG (2641), apoptosis genes
  GCG log2FC: 0.020
Gene GCLM (2730), apoptosis genes
  GCLM log2FC: -0.092
Gene GCM2 (9247), apoptosis genes
  GCM2 log2FC: -0.015
Gene GEM (Gene 2669), cell cycle genes
  log2FC: 0.406
Gene GFRAL (389400), apoptosis genes
  GFRAL log2FC: 0.017
Gene GHRL (51738), apoptosis genes
  GHRL log2FC: -0.012
Gene GIMAP5 (55340), apoptosis genes
  GIMAP5 log2FC: 0.026
Gene GJB6 (10804), apoptosis genes
  GJB6 log2FC: -0.056
Gene GOLGA2 (Gene 2801), cell cycle genes
  log2FC: 0.210
Gene GORASP1 (Gene 64689), cell cycle genes
  log2FC: 0.146
Gene GORASP2 (Gene 26003), cell cycle genes
  log2FC: -0.256
Gene GPI (2821), apoptosis genes
  GPI log2FC: -0.083
Gene GPR65 (8477), apoptosis genes
  GPR65 log2FC: 0.021
Gene GRK1 (6011), apoptosis genes
  GRK1 log2FC: -0.013
Gene GTPBP8 (Gene 29083), cell cycle genes
  log2FC: 0.316
Gene GTSE1 (Gene 51512), cell cycle genes
  log2FC: -0.374
Gene H1FOO (Gene 132243), cell cycle genes
  log2FC H1FOO: 0.014
Gene HCLS1 (3059), apoptosis genes
  HCLS1 log2FC: 0.022
Gene HELLS (Gene 3070), cell cycle genes
  log2FC: 0.388
Gene HIPK3 (10114), apoptosis genes
  HIPK3 log2FC: 0.006
Gene HORMAD2 (Gene 150280), cell cycle genes
  log2FC HORMAD2: 0.014
Gene HPGD (Gene 3248), cell cycle genes
  log2FC HPGD: 0.013
Gene HPN (3249), apoptosis genes
  HPN log2FC: -0.022
Gene HTRA2 (27429), apoptosis genes
  HTRA2 log2FC: 0.031
Gene HTRA2 (Gene 27429), cell cycle genes
  log2FC HTRA2: 0.031
Gene IFI6 (2537), apoptosis genes
  IFI6 log2FC: 0.041
Gene IFNA2 (3440), apoptosis genes
  IFNA2 log2FC: -0.017
Gene IFNB1 (3456), apoptosis genes
  IFNB1 log2FC: 0.00571
Gene IL1A (3552), apoptosis genes
  IL1A log2FC: -0.044
Gene IL2RA (3559), apoptosis genes
  IL2RA log2FC: -0.031
Gene IL2RB (3560), apoptosis genes
  IL2RB log2FC: 0.014
Gene IL12A (3592), apoptosis genes
  IL12A log2FC: 0.00544
Gene IL12A (Gene 3592), cell cycle genes
  log2FC IL12A: 0.00544
Gene IL12B (3593), apoptosis genes
  IL12B log2FC: -0.025
Gene IL17A (3605), apoptosis genes
  IL17A log2FC: -0.016
Gene IL19 (29949), apoptosis genes
  IL19 log2FC: -0.00458
Gene ILK (3611), apoptosis genes
  ILK log2FC: -0.066
Gene ILKAP (Gene 80895), cell cycle genes
  log2FC ILKAP: 0.002
Gene INSL6 (11172), apoptosis genes
  INSL6 log2FC: 0.055
Gene ISL1 (3670), apoptosis genes
  ISL1 log2FC: -0.036
Gene ITGA6 (3655), apoptosis genes
  ITGA6 log2FC: -0.050
Gene ITGB2 (3689), apoptosis genes
  ITGB2 log2FC: -0.075
Gene ITM2C (81618), apoptosis genes
  ITM2C log2FC: -0.082
Gene KATNB1 (Gene 10300), cell cycle genes
  log2FC KATNB1: 0.014
Gene KCNA5 (Gene 3741), cell cycle genes
  log2FC KCNA5: -0.012
Gene KDR (3791), apoptosis genes
  KDR log2FC: -0.026
Gene KIAA0101 (Gene 9768), cell cycle genes
  log2FC: 0.294
Gene KIAA1324 (57535), apoptosis genes
  KIAA1324 log2FC: -0.008
Gene KIF2B (Gene 84643), cell cycle genes
  log2FC KIF2B: -0.018
Gene KIF13A (Gene 63971), cell cycle genes
  log2FC: 0.190
Gene KIF23 (Gene 9493), cell cycle genes
  log2FC: 0.530
Gene KIF25 (Gene 3834), cell cycle genes
  log2FC KIF25: -0.013
Gene KLF4 (9314), apoptosis genes
  KLF4 log2FC: -0.009
Gene KRT20 (54474), apoptosis genes
  KRT20 log2FC: -0.037
Gene LALBA (3906), apoptosis genes
  LALBA log2FC: 0.031
Gene LATS1 (Gene 9113), cell cycle genes
  log2FC LATS1: 0.043
Gene LATS2 (Gene 26524), cell cycle genes
  log2FC: 0.213
Gene LCMT1 (51451), apoptosis genes
  LCMT1 log2FC: -0.115
Gene LCN2 (3934), apoptosis genes
  LCN2 log2FC: 0.046
Gene LEMD3 (Gene 23592), cell cycle genes
  log2FC: 0.294
Gene LGALS1 (3956), apoptosis genes
  LGALS1 log2FC: 0.017
Gene LGALS12 (85329), apoptosis genes
  LGALS12 log2FC: 0.013
Gene LGALS14 (56891), apoptosis genes
  LGALS14 log2FC: -0.009
Gene LMNA (Gene 4000), cell cycle genes
  log2FC: -0.311
Gene LRP1 (4035), apoptosis genes
  LRP1 log2FC: 0.0019
Gene LRP6 (Gene 4040), cell cycle genes
  log2FC: -0.141
Gene LSM11 (Gene 134353), cell cycle genes
  log2FC: 0.145
Gene LTA (4049), apoptosis genes
  LTA log2FC: -0.039
Gene LTF (4057), apoptosis genes
  LTF log2FC: 0.011
Gene MAD2L1 (4085), apoptosis genes
  MAD2L1 log2FC: 0.081
Gene MAEL (84944), apoptosis genes
  MAEL log2FC: -0.018
Gene MAEL (Gene 84944), cell cycle genes
  log2FC MAEL: -0.018
Gene MAGED1 (9500), apoptosis genes
  MAGED1 log2FC: -0.026
Gene MAGEH1 (28986), apoptosis genes
  MAGEH1 log2FC: -0.040
Gene MAP2K5 (5607), apoptosis genes
  MAP2K5 log2FC: -0.077
Gene MAP2K7 (5609), apoptosis genes
  MAP2K7 log2FC: 0.020
Gene MAP3K8 (Gene 1326), cell cycle genes
  log2FC: 0.390
Gene MAP4 (Gene 4134), cell cycle genes
  log2FC: -0.267
Gene MAPK1 (5594), apoptosis genes
  MAPK1 log2FC: -0.045
Gene MAPK4 (Gene 5596), cell cycle genes
  log2FC: -0.157
Gene MAPK6 (Gene 5597), cell cycle genes
  log2FC: 0.270
Gene MAPK8 (5599), apoptosis genes
  MAPK8 log2FC: 0.027
Gene MAPK9 (5601), apoptosis genes
  MAPK9 log2FC: 0.064
Gene MAPK12 (Gene 6300), cell cycle genes
  log2FC: -0.374
Gene MAPT (4137), apoptosis genes
  MAPT log2FC: -0.024
Gene MCM4 (Gene 4173), cell cycle genes
  log2FC MCM4: 0.015
Gene MDM4 (4194), apoptosis genes
  MDM4 log2FC: 0.064
Gene MED25 (Gene 81857), cell cycle genes
  log2FC: -0.377
Gene MKL1 (57591), apoptosis genes
  MKL1 log2FC: 0.068
Gene MKNK1 (8569), apoptosis genes
  MKNK1 log2FC: -0.00243
Gene MNDA (4332), apoptosis genes
  MNDA log2FC: -0.056
Gene MSX2 (4488), apoptosis genes
  MSX2 log2FC: 0.054
Gene MT3 (4504), apoptosis genes
  MT3 log2FC: -0.266
Gene MYOG (Gene 4656), cell cycle genes
  log2FC: -0.210
Gene NACA (4666), apoptosis genes
  NACA log2FC: 0.023
Gene NANOG (Gene 79923), cell cycle genes
  log2FC NANOG: -0.00653
Gene NASP (Gene 4678), cell cycle genes
  log2FC: 0.392
Gene NCF1 (653361), apoptosis genes
  NCF1 log2FC: -0.052
Gene NCF2 (4688), apoptosis genes
  NCF2 log2FC: -0.027
Gene NCOR1 (Gene 9611), cell cycle genes
  log2FC: 0.294
Gene NDUFS3 (4722), apoptosis genes
  NDUFS3 log2FC: -0.101
Gene NEURL (9148), apoptosis genes
  NEURL log2FC: -0.034
Gene NEUROD1 (4760), apoptosis genes
  NEUROD1 log2FC: -0.043
Gene NEUROG1 (Gene 4762), cell cycle genes
  log2FC NEUROG1: 0.161
Gene NLE1 (54475), apoptosis genes
  NLE1 log2FC: 0.057
Gene NME6 (10201), apoptosis genes
  NME6 log2FC: -0.008
Gene NME6 (Gene 10201), cell cycle genes
  log2FC NME6: -0.008
Gene NOS1AP (9722), apoptosis genes
  NOS1AP log2FC: 0.022
Gene NOTCH1 (4851), apoptosis genes
  NOTCH1 log2FC: -0.090
Gene NOX5 (79400), apoptosis genes
  NOX5 log2FC: -0.012
Gene NOX5 (Gene 79400), cell cycle genes
  log2FC NOX5: -0.012
Gene NTRK1 (4914), apoptosis genes
  NTRK1 log2FC: -0.014
Gene NUMA1 (Gene 4926), cell cycle genes
  log2FC: -0.415
Gene NUP153 (Gene 9972), cell cycle genes
  log2FC: -0.238
Gene NUP155 (Gene 9631), cell cycle genes
  log2FC NUP155: -0.034
Gene NUP188 (Gene 23511), cell cycle genes
  log2FC: -0.304
Gene NUPR1 (26471), apoptosis genes
  NUPR1 log2FC: 0.023
Gene OSR1 (130497), apoptosis genes
  OSR1 log2FC: -0.039
Gene P4HB (5034), apoptosis genes
  P4HB log2FC: 0.022
Gene PA2G4 (Gene 5036), cell cycle genes
  log2FC: -0.298
Gene PAFAH2 (5051), apoptosis genes
  PAFAH2 log2FC: 0.046
Gene PAK6 (56924), apoptosis genes
  PAK6 log2FC: -0.022
Gene PAK6 (Gene 56924), cell cycle genes
  log2FC PAK6: -0.022
Gene PAPD5 (Gene 64282), cell cycle genes
  log2FC: 0.341
Gene PARK7 (11315), apoptosis genes
  PARK7 log2FC: 0.028
Gene PAX2 (5076), apoptosis genes
  PAX2 log2FC: 0.003
Gene PCNA (Gene 5111), cell cycle genes
  log2FC PCNA: -0.00322
Gene PCSK9 (255738), apoptosis genes
  PCSK9 log2FC: -0.039
Gene PDCD2L (Gene 84306), cell cycle genes
  log2FC PDCD2L: 0.012
Gene PDCD5 (9141), apoptosis genes
  PDCD5 log2FC: 0.123
Gene PDCL3 (79031), apoptosis genes
  PDCL3 log2FC: -0.100
Gene PDE1B (5153), apoptosis genes
  PDE1B log2FC: 0.004
Gene PDE3A (5139), apoptosis genes
  PDE3A log2FC: -0.006
Gene PDE3A (Gene 5139), cell cycle genes
  log2FC PDE3A: -0.006
